Laboratory results published in patent US7037644B1, “Means and methods for monitoring non-nucleoside reverse transcriptase inhibitor antiretroviral therapy and guiding therapeutic decisions in the treatment of HIV/AIDS” (ViroLogic, Inc., priority 1998, dated 2006).
Values joined by “and” are separate entries in the source; they are usually repeats but may differ in a detail not shown here. Equal values may be shown once. “Also recorded” adds a separate entry of the source.

Experiments:
Format in all cases: cell-based, HIV-1
Y181I-RTV = test: Phenotypic susceptibility assay (site directed mutant RTV); details: for loss of susceptibility (fold, IC50) vs wild type control RTV: Y181I alone; for change in susceptibility: mutation at codon 181 (isoleucine)
Description: (§1) The resistance test vectors containing a functional luciferase gene cassette were constructed and host cells were transfected with the resistance test vector DNA. The resistant test vectors contained patient-derived reverse transcriptase and protease sequences that were either susceptible or resistant to the antiretroviral agents, such as nucleoside reverse transcriptase inhibitors, non-nucleoside reverse transcriptase inhibitors and protease inhibitors. The resistance test vector viral particles produced by transfecting the resistance test vector DNA into host cells, either in the presence or absence of protease inhibitors, were used to infect target host cells grown either in the absence of NRTI or NNRTI or in the presence of increasing concentrations of the drug. The amount of luciferase activity produced in infected target host cells in the presence of drug was compared to the amount of luciferase produced in infected target host cells in the absence of drug. Drug resistance was measured as the amount of drug required to inhibit by 50% the luciferase activity detected in the absence of drug (inhibitory concentration 50%, IC50). The IC50 values were determined by plotting percent drug inhibition vs. log10 drug concentration.
(§2) Host cells were seeded in 10-cm-diameter dishes and were transfected several days after plating with resistance test vector plasmid DNA and the envelope expression vector. Transfections were performed using a calcium-phosphate precipitation procedure. The cell culture media containing the DNA precipitate was replaced with fresh medium, from one to 24 hours, after transfection. Cell culture media containing resistance test vector viral particles was harvested one to four days after transfection and was passed through a […] filter before being stored at […]. HIV capsid protein (p24) levels in the harvested cell culture media were determined by an EIA method as described by the manufacturer (SIAC; Frederick, Md.). Before infection, target cells (293 and 293/T) were plated in cell culture media. Control infections were performed using cell culture media from mock transfections (no DNA) or transfections containing the resistance test vector plasmid DNA without the envelope expression plasmid. One to three or more days after infection the media was removed and cell lysis buffer (Promega) was added to each well. Cell lysates were assayed for luciferase activity (FIG. 3). The inhibitory effect of the drug was determined using the following equation: % luciferase inhibition=1−(RLUluc [drug]÷RLUluc)×100 where RLUluc [drug] is the relative light unit of luciferase activity in infected cells in the presence of drug and RLUluc is the Relative Light Unit of luciferase activity in infected cells in the absence of drug. IC50 values were obtained from the sigmoidal curves that were generated from the data by plotting the percent inhibition of luciferase activity vs. the log10 drug concentration. The drug inhibition curves are shown in (FIG. 3).
The Y181I mutationwas introduced into the resistance test vector using the mega-primer method for site-directed mutagenesis (Sakar and Sommar, Ibid). A resistance test vector containing the Y181I mutation (Y181I-RTV) was then tested using the phenotypic assay described earlier and the results were compared to those determined using a genetically defined resistance test vector that was wild type at position 181. We determined the pattern of phenotypic susceptibility to the NNRTIs, delavirdine, nevirapine and efavirenz, in the Y181I-RTV.

K103N-RTV = test: as above; details: for change in susceptibility: K103N; for loss of susceptibility (fold, IC50) vs wild type control RTV: K103N alone
Description: as §1, §2
(§3) The K101E, K103N and G190A mutations were introduced alone and in combination into resistance test vectors using the mega-primer method for site-directed mutagenesis (Sakar and Sommar, Ibid.).
(§4) The mutations Y188L, L100I and K103N were introduced alone and in combinationn into resistance test vectors using the mega-primer method for site-directed mutagenesis (Sakar and Sommar, Ibid.).

K101E-G190A-RTV = test: as above; details: for change in susceptibility (fold, IC50) vs wild type control RTV: K101E and G190A; for change in susceptibility: mutations at codons 101 and 190 (190A)
Description: as §1, §2, §3

K103N-G190A-RTV = test: as above; details: for loss of susceptibility (fold, IC50) vs wild type control RTV: K103N and G190A; for change in susceptibility: mutations at codons 103 and 190
Description: as §1, §2, §3

Y181C-RTV = test: as above; details: for change in susceptibility: Y181C, FIG. 5
Description: as §1, with “Drug resistance was measured as the amount of drug required to inhibit by 50% the luciferase activity detected in the absence of drug (inhibitory concentration 50%, IC50).” left out
(§5) Host cells were seeded in 10-cm-diameter dishes and were transfected several days after plating with resistance test vector plasmid DNA and the envelope expression vector. […] HIV capsid protein (p24) levels in the harvested cell culture media were determined by an EIA method as described by the manufacturer (SIAC; Frederick, Md.). […] The inhibitory effect of the drug was determined using the following equation: % luciferase inhibition=1−(RLUluc [drug]÷RLUluc)×100 where RLUluc [drug] is the relative light unit of luciferase activity in infected cells in the presence of drug and RLUluc is the Relative Light Unit of luciferase activity in infected cells in the absence of drug. […]
The Y181C and A98G mutations were introduced alone and in combination into resistance test vectors using the mega-primer method for site-directed mutagenesis (Sakar and Sommar, Ibid.). […] We determined the pattern of phenotypic susceptibility to the NNRTIs, delavirdine, neviraphine and efavirenz, in the three vectors. […]

[1] = tested on: RTV-1060, patient 98-1060 (RT K101E, G190S); test: Phenotypic susceptibility assay (patient RTV); details: patient RTV pool
Description: as §1, with “Drug resistance was measured as the amount of drug required to inhibit by 50% the luciferase activity detected in the absence of drug (inhibitory concentration 50%, IC50).” left out
as §5
A resistance test vector was constructed as described in Example 1 from a patient sample designated 98-644. […] RTV-644 and RTV-1060 were then tested in a phenotypic, assay to determine accurately and quantitatively the level of susceptibility to a panel of anti-retroviral drugs. […]

L100I_K103N-RTV = test: Phenotypic susceptibility assay (site directed mutant RTV); details: for change in susceptibility: mutations at 100 and 103
Description: as §1, §2, §4

P236L-RTV = test: as above; details: P236L alone vs wild type reference RTV; also statements 'codon 236 alone or in combination'
Description: as §1, §2
(§6) Genotypic changes that are observed to correlate with changes in phenotypic patterns of drug susceptibility are evaluated by construction of resistance test vectors containing the specific mutation on a defined, wild-type (drug susceptible) genetic background. Mutations may be incorporated alone and/or in combination with other known drug resistance mutations that are thought to modulate the susceptibility of HIV to a certain drug or class of drugs. Mutations are introduced into the resistance test vector through any of the widely known methods for site-directed mutagenesis. In one embodiment of this invention the mega-primer PCR method for site-directed mutagenesis is used. […]

[2] = tested on: RTV with P225H plus K103N, Y181C or both; test: as above; details: P225H with K103N and/or Y181C vs RTV lacking P225H; also statements 'codon 225 alone or in combination with 103'
Description: as §1, §2, §6

| SMILES | loss of susceptibility (fold, IC50) vs wild type control RTV (Y181I-RTV) [fold] | change in susceptibility (Y181I-RTV) | change in susceptibility (K103N-RTV) | loss of susceptibility (fold, IC50) vs wild type control RTV (K103N-RTV) [fold] | change in susceptibility (fold, IC50) vs wild type control RTV (K101E-G190A-RTV) | change in susceptibility (K101E-G190A-RTV) | loss of susceptibility (fold, IC50) vs wild type control RTV (K103N-G190A-RTV) | change in susceptibility (K103N-G190A-RTV) | change in susceptibility (Y181C-RTV) | decrease in susceptibility (fold, IC50) [1] | change in susceptibility (L100I_K103N-RTV) | change in susceptibility (P236L-RTV) | change in susceptibility [2] | loss of susceptibility (fold, IC50) vs wild type control RTV (Y181C-RTV; Y181C alone) | loss of susceptibility (fold, IC50) vs wild type control RTV (L100I_K103N-RTV; L100I and K103N) [fold] |
| --- | --- | --- | --- | --- | --- | --- | --- | --- | --- | --- | --- | --- | --- | --- | --- |
| CC(C)Nc1cccnc1N1CCN(C(=O)c2cc3cc(NS(C)(=O)=O)ccc3[nH]2)CC1 [delavirdine] | 20 | moderate decrease | reduced susceptibility; also recorded: resistance | 50 | 2 fold | slight loss of susceptibility; also recorded: no change | 40 fold | slight loss of susceptibility; also recorded: moderate decrease | resistance | 1.5 fold | substantial decrease | less susceptible; also recorded: significant reduction; also recorded: decreased susceptibility; also recorded: decrease | more susceptible; also recorded: increase; also recorded: decreases the amount of delavirdine resistance | – | – |
| O=C1Nc2ccc(Cl)cc2[C@@](C#CC2CC2)(C(F)(F)F)O1 [efavirenz] | 1.4 | no change | – | 30 | 120 fold | significant decrease | 215 fold | significant decrease | – | 900 fold | substantial decrease | no effect | little or no change | 3 fold and 4 fold | – |
| Cc1ccnc2c1NC(=O)c1cccnc1N2C1CC1 [nevirapine] | 740 | significant decrease | reduced susceptibility; also recorded: resistance | 55 | greater than 800 fold | substantial decrease | greater than 800 fold | substantial decrease | resistance | greater than 800 fold | moderate decrease | no significant change; also recorded: little or no change; also recorded: little or no reduction; also recorded: no reduction | did not significantly change; also recorded: little or no change; also recorded: does not decrease; also recorded: no effect | – | 70 |
